Measured values from US20260125727A1, “METHOD FOR PRODUCING A COMPOSITION, A COMPOSITION COMPRISING AN OLIGOSACCHARIDE OBTAINED THEREBY, AND USES THEREOF” (MEIJI CO., LTD., priority 2022, published 2026).

What was measured:
[1] = Evaluation of thermal stability of aqueous solution (residual ratio of galactosylkojibiose after heat treatment, HPLC); type: physicochemical; conditions: for change of galactosylkojibiose HPLC peak after heat treatment: 120° C. for 20 minutes, 12 wt % solution in buffer
Protocol: Buffers having various pH values (100 mM citrate-phosphate buffer for pH 3 to 6 and 100 mM phosphate buffer for pH 6 to 8) were used to dissolve the purified and fractionated galactosylkojibiose obtained in Example 3 so that the resulting solutions should have 12° Bx (12 wt %). The solutions were subjected to a heat treatment at 60° C., 80° C., 100° C., and 120° C. for 20 minutes by using an autoclave, and then residual ratio of galactosylkojibiose was evaluated.
The residual ratio was calculated from the results obtained by using HPLC method performed under the following conditions. • Column: SUPELCO apHera™ NH2 HPLC Column • Mobile phase: 68% acetonitrile • Column temperature: 35° C. • Flow rate: 1.0 mL/min • Detection: RI

Bifidobacterium bacteria = assay: Promotion of growth of Bifidobacterium bacteria in the intestinal microbiota; conditions: studies of the inventors, no method given
Parabacteroides bacteria = assay: Promotion of growth of Parabacteroides bacteria in the intestinal microbiota; conditions: studies of the inventors, no method given

OCC1O[C@H](OC2C(O)[C@H](O[C@@H]3OC(CO)[C@H](O)C(O)C3O)C(CO)O[C@H]2O)C(O)C(O)[C@@H]1O (stereo partly drawn) [galactosylkojibiose, α-D-glucopyranosyl-(1→2)-[β-D-galactopyranosyl-(1→4)-]D-glucopyranoside]
decay of galactosylkojibiose after heat treatment ([1]; 60° C. for 20 minutes, any pH value (pH 3 to 8)): not observed | change of galactosylkojibiose HPLC peak after heat treatment ([1]; pH 6 or lower): no significant change | change of galactosylkojibiose HPLC peak after heat treatment ([1]; pH 7 or higher, new peak at around 12.1 minutes): decay of the chromatographic peak | growth of Bifidobacterium bacteria in the intestinal microbiota (Bifidobacterium bacteria): promote the growth | growth of Parabacteroides bacteria in the intestinal microbiota (Parabacteroides bacteria): promote the growth

OCC1O[C@H](OC2[C@H](O)OC(CO)[C@@H](O)[C@@H]2O)C(O)[C@@H](O)[C@@H]1O (stereo partly shown) [kojibiose]
growth of Bifidobacterium bacteria in the intestinal microbiota (Bifidobacterium bacteria): promote the growth | growth of Parabacteroides bacteria in the intestinal microbiota (Parabacteroides bacteria): promote the growth
